Source: US20250160328A1, “COMPOSITIONS AND METHODS FOR REDUCING PARASITIC INFESTATION OF HONEY BEE HIVES” (University of Georgia Research Foundation, Inc., priority 2022, published 2025)
Several values for one entry are separate records, joined by “and”; a condition that tells them apart may be missing. Equal entries are not always repeated.

Key:
[1] = tested on: honey bees; experiment: Adult Honeybee Atoxicity Assays (mortality cages)
Protocol: In all instances, isocaloric sugar feed solutions were used (all honey bees were exposed to feed of equivalent sugar concentration). Both sets of experiments also tested the safety of methanol as a solvent for carrying the chlorantraniliprole. Mortality cages used approximately 20-50 bees per cage replicated across numerous colonies. Each cage was treated with one experimental dose of feed. Each colony donates a cage of bees to each dose in a full factorial experiment in line with tests used for EPA evaluation. Mortality was recorded at 24 hours and 48 hours.
Treatments included chlorantraniliprole concentrations of: 0 (w/methanol), 0 (w/o methanol), 0 (positive dimethoate control), 5, 15, 65, 250 μg/mL.

[2] = tested on: small hive beetle adults; experiment: SHB Adult Exposure Toxicity Assay (contact); format: in vivo, Aethina tumida
Protocol: Testing on chlorantraniliprole contact effectiveness was also conducted on small hive beetle adults. Each plate in which small hive beetles were placed contained an approximately 1 in×1 in square of absorbent shop towel located in the middle of the pot, soaked with solution via pipette. Tests included a methanol-negative (1:1 sugar to water/w) control group with 6 plates of 8 individuals, a methanol-positive (1:1 sugar to water/w solution with methanol then added in to be 1/6 of volume) control group with 7 plates of 8 individuals, a 5 μg treatment group (same as methanol-positive control with 5 μg a.i. added) with 7 plates of 8 individuals, and a 10 μg group (same as methanol-positive control with 10 μg a.i. added) with 7 plates of 8 individuals. Numbers of live beetles were tallied at the end of the test period.

[3] = tested on: adult small hive beetles; experiment: SHB Adult Feed Toxicity and Reproduction Assay; format: in vivo, Aethina tumida
Protocol: In-feed testing with adult small hive beetles was done with small hive beetle adults taken from colonies in the field and individuals reared in-lab. Adults from the field and in-lab were given three days to acclimate together in a large container with feed (2 parts pollen supplement; 1 part pollen; 1/2 part honey) in an incubator at 30 C. Simultaneously, 50 mg of Chlorantraniliprole was suspended in 50 mL (1.25 g/mL) glycerol, which was then mixed into 100 g feed, resulting in a concentration of 0.3 mg Chlorantraniliprole per 1 gram feed. A concentration of 100 μg of active ingredient per 1 gram feed was then achieved via dilution with feed and glycerol solution. Using serial dilution, feeds with varying concentrations of active ingredient were mixed, producing feeds with 100 μg, 10 μg, 1 μg, 0 μg (control) active ingredient per 1 g feed. Following the acclimation period, approximately 10 adult small hive beetles (some pots contained more than 10 individuals, but no more than 12) were randomly assigned to 32 pots, with 8 pots randomly assigned to each treatment (100 μg, 10 μg, 1 μg, 0 μg Chlorantraniliprole). Mortality and reproduction were then monitored at 4, 6, 18 and 34 days.

[4] = tested on: small hive beetle (SHB); experiment: Field Assay: SHB infestation of pollen supplement patties in hives; format: in vivo, Aethina tumida; conditions: approximately 10 μg chlorantraniliprole per 1 g protein feed
Protocol: FIG. 2 is a bar graph of the experimental results from FIG. 1, showing the infestation rates of protein substitute mixed with concentrated solution of chlorantraniliprole, methanol, and glycerol according to trial instructions compared to untreated/control supplementary feed. Instructions achieved approximately 10 μg chlorantraniliprole per 1 g protein feed. Briefly, chlorantraniliprole was dissolved in methanol at a ratio of 1 mg chlorantraniliprole to 1 ml methanol via agitation/stirring. Chlorantraniliprole-methanol solution was cooled to −20° C. and then suspended/mixed into glycerol also cooled to −20° C. and stored between 4° C. and −20° C. to create a shelf-stable product. Product was then mixed into lethal attractant/supplementary feed at a rate of 50 ml formulated product per 1 kg feed or attractant via either mechanical or hand mixing at ambient temperature (200 ml of 80% glycerol/20% methanol was added to 4 kg of protein feed (i.e., 40 ml glycerol and 10 ml methanol per 1 kg protein feed). Treated attractant/feed mixture was then ready for deployment in the honey colony.
Pollen supplement was weighed out into two masses, each approximately 4 kg. To create the control pollen supplement patties, 200 ml of 80% glycerol, 20% methanol by volume solution was added to the pollen supplement mass. […]

[5] = tested on: adult carabid beetles; conditions: Larson et al., Pest Manag. Sci. 2012; cited from earlier work
[6] = tested on: honey bees; conditions: cited from earlier work; for intoxication symptoms to honey bees: under certain test conditions, Minnesota Department of Agriculture website
[7] = tested on: bumblebee colony; conditions: in vivo; cited from earlier work
[8] = 10 μg/g chlorantraniliprole in feed
[9] = 100 μg/g chlorantraniliprole in feed

Row | SMILES | toxicity of the solvent to honey bees ([1]; methanol in sugar feed (30% by volume in set one) versus no methanol) | mortality of adult small hive beetles via contact exposure ([2]; 5 μg and 10 μg a.i. on soaked shop towel in sugar water/methanol) | survival of adult small hive beetles ([2]; 5 μg and 10 μg a.i., contact exposure, end of test period) | SHB larvae observed (reproduction) ([3]; 1 μg/g chlorantraniliprole in feed) | SHB larvae observed (reproduction) [3, 8] | mortality of adult small hive beetles [3, 8] | SHB larvae observed (reproduction) [3, 9] | time of exposure by which all adult small hive beetles were dead [3, 9] | SHB infestation of patties in the five day field trial period ([4]; 5 days in hives) | SHB infestation of supplementary food after two weeks of incubation to hatch eggs ([4]; 5 days in hives then 14 days at 30 C) | sublethal effect observed in honeybees ([1]; 250 μg/mL, the very highest dose) | adult bee mortality at effective control concentrations ([1]; USDA-standard laboratory trials, FIG. 4) | honey bee mortality in relation to dose ([1]; set one 1.25-10 μg/mL, set two 5-250 μg/mL in sugar feed, 24 hours and 48 hours) | in-field toxicity to adult carabid beetles [5] | LD50 to Apis mellifera (EPA 2008) ([6]; EPA registration documentation as a lawn-treatment) | oral toxicity (LD50) for bees, EPA Data ([6]; oral) | intoxication symptoms to honey bees [6] | fold less toxic than clothianidin to Apis mellifera ([6]; versus a comparable neonicotinoid, clothianidin) | effects on bumblebee colony growth or mortality [7]
1 | CO [methanol] | No evidence of any toxicity |  |  |  |  |  |  |  |  |  |  |  |  |  |  |  |  |  | 
2 | CNC(=O)c1cc(Cl)cc(C)c1NC(=O)c1cc(Br)nn1-c1ncccc1Cl [chlorantraniliprole] |  | no evidence of elevated mortality | all adult small hive beetles survived the experiment | few larvae were observed but subsequently died while still in their first or second instars | No evidence of any larvael SHB | Elevated mortality | No evidence of any larvael SHB | ≤ 6 days | remained free of SHB infestation | remained SHB-infestation free and 10/10 | Sublethal lethargy | no adult bee mortality | no significant increase in honey bee mortality | no evidence of apparent in-field toxicity | > 0.1 mg/bee | exceeds 100 μg a.i. per bee | little or no intoxication symptoms | more than 2000 × | no detectable negative effects
3 | Cc1cc(C(F)(C(F)(F)F)C(F)(F)F)ccc1NC(=O)c1cccc(I)c1C(=O)NC(C)(C)CS(C)(=O)=O [flubendiamide] |  |  |  |  |  |  |  |  |  |  |  |  |  |  |  |  | little or no intoxication symptoms |  | 
